According to patent US12062444B2, “Methods and compositions related to triple-negative breast cancer” (THE UNIVERSITY OF CHICAGO, priority 2017, dated 2024):
Entries after “also recorded” stand apart in the source; their conditions may differ.

How the values were obtained:
[1] = biological target: T1, GR LBD (Homo sapiens, UniProt P04150); test: Ligand titration assay via fluorescence polarimetry (displacement of F-Dex); type: binding
T1 construct: The wild-type GR-LBD (amino acid residues 522-777) was cloned into a pFASTBAC plasmid; 6X-His (TEV-cleavable) (cleaved yes); made in house; host or cells: SF9 insect cells (baculovirus, pFASTBAC)
T1 sequence (P04150 522-777): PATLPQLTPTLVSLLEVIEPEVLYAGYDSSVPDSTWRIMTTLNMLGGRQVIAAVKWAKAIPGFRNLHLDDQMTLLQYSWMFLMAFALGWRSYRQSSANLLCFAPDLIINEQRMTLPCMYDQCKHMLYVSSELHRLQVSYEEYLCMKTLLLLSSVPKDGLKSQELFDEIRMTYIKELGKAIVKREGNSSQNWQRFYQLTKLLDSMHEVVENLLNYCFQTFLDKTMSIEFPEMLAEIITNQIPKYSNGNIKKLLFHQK
Description: SF9 insect cells were transfected with recombinant bacmid and virus (collected after 6 days) was amplified prior to protein expression. […] GR-LBD was purified first using Ni-affinity chromatography followed by overnight dialysis with TEV protease to remove the His tag. Extensive dialysis into 20 mM TRIS pH 8.0, 500 mM NaCl, 5% glycerol, 0.1% CHAPS, 0.25 mM TCEP was performed to obtain non-ligand-bound GR LBD. […] The purified proteins were concentrated to 5 mg/ml, flash frozen in 50 ul aliquots in N2(l), and stored at −80C.
GR LBD was diluted in assay buffer (20 mM TRIS pH 7.5, 50 mM NaCl, 0.25 mM TCEP) to a concentration of 50 nM. […] Triplicate FP measurements were scaled to maximal FP and averaged for each ligand concentration.

[2] = test system: GR-regulated gene expression in MDA-MB-231 cells; test: Gene expression microarray and analysis; type: cell-based, human
Description: MDA-MB-231 cells were grown to 80% confluence in 15-cm dishes in DMEM with 10% FBS. […] Following compound exposure, cells were washed in PBS, and lysed in RNA lysis buffer (Qiagen) overnight at -80° C. RNA extraction, with accompanying DNase treatment, was performed using the RNeasy kit (Qiagen) following the manufacturer's protocol. […] The University of Chicago Genomics Core facility carried out the reverse transcription on the samples, followed by microarray using the Affymetrix Human U133 Plus 2.0 platform. […] A principal components analysis (PCA) was performed using the prcomp function in R (Q-mode PCA using singular value decomposition). […] Dex-regulated genes were overlapped with a list of n=5,170 differentially-expressed tumor-derived genes (in the same direction) from GR-high versus GR-low BCs (52). Ingenuity Pathway Analysis (Qiagen) of the n=462 patient-relevant and antagonist-inhibited genes was performed to obtain Activation Z-scores of the most significant Diseases and Biofunctions (cell functions).

[3] = test system: GR chromatin association in MDA-MB-231 cells; test: GR ChIP-sequencing and analysis; type: cell-based, human; conditions: co-treatment with Dex
Description: MDA-MB-231 cells were grown to 80% confluence in 15-cm dishes in DMEM with 10% FBS, followed by 48h in DMEM supplemented with 2.5% charcoal-stripped FBS. […] Cells were cross-linked with 1% formaldehyde, quenched with glycine (final concentration of […]), and harvested. After cell lysis with ChIP lysis buffer (Magna ChIP A Chromatin Immunoprecipitation Kit, EMD Millipore), cells were sonicated to achieve the majority of DNA fragments between 200-400 bp. Input samples were preserved at -80° C. […] Following manufacturer's protocol, chromatin was eluted from GR ChIP and input samples. Library build and sequencing was performed at the University of Oregon Genomics Core facility using the NextSeq 500 sequencer. Quality control on sequences and adapter sequencing trimming was performed using Kapa Biosystems Illumina Library Quantification Kit. ChIP-seq analysis was carried out using the Galaxy platform (usegalaxy.org (111)). […] GR peaks for each treatment were normalized to its own input control sample. […] Selected GR peak locations in hg19 and GR peak maps were also individually analyzed using Integrative Genomics Viewer, IGV (Broad Institute (116)).

[4] = mifepristone 300 mg/day before weekly nab-paclitaxel, BC patients; cited from earlier work
[5] = test system: apoptotic cells; conditions: RU486 in conjunction with dexamethasone, compared to paclitaxel alone; cited from earlier work
[6] = test system: tumor cell survival; conditions: in vitro and in vivo; cited from earlier work

CC#C[C@]1(O)CC[C@H]2[C@@H]3CCC4=CC(=O)CCC4=C3[C@@H](c3ccc(N(C)C)cc3)C[C@@]21C [Mif, mifepristone]
Displacement of fluorescently-labeled Dex (F-Dex) from the GR LBD [1]: low nM affinities
Fit of FP dose response curve (half-maximal FP signal) [1]: able to fit data
Genes for which both GR modulators antagonized GR induction or repression by at least 25% ([2]; 100 nM with 100 nM Dex): 3,066
Antagonized GR-regulated genes shared with the other antagonist ([2]; C297 versus Mif, 100 nM): 68%
Pathway activation Z-score (Ingenuity Pathway Analysis) relative to Dex ([2]; n=462 genes, cell survival, invasion, EMT pathways, FIG. 13): relative dampening of Z-score magnitude
Relative GR promoter enrichment (+/−3kb) [3]: decrease in relative GR promoter enrichment
Safety and tolerability of the combination with nab-paclitaxel [4]: safe and tolerable; also recorded: potential for increased cytopenias
Number of apoptotic cells induced by paclitaxel [5]: did not increase the number of apoptotic cells
Paclitaxel cytotoxicity under GC activation [6]: increase paclitaxel cytotoxicity both in vitro and in vivo
